Results on seven molecules are retold here after patent US7303881B2, “Antigen delivery compositions and methods of use” (priority 2004, dated 2007).

Assay [1] concerns DC 2.4 cells. Description: Expression of CD80 on DC 2.4 cells, cationic lipid head group and chain length. Format: cell-based. The text has this: Both hydrophilic head and the lipophilic tail of the lipids have significant effect on this ability. […] The effect of the hydrocarbon tail region of the lipids on the DC cell stimulation also was systematically investigated (FIG. 8).

Assay [2] concerns EL4 cells pulsed with E7 peptide. In words: Chromium release CTL assay after LPD/E7 vaccination. The format is in vivo, C57BL/6 mice. As to conditions: 20 μg E7 peptide, IV and SC, days 0 and 5. On the procedure: For comparison, mice were injected with 20 μg E7 peptide in PBS or encapsulated in SL liposomes. Five days after the final vaccination, splenocytes were collected, and used as effector cells in a chromium release assay. Consistent with previous reports, antigen containing SL liposomes induced significant levels of CTL activity (61% specific lysis) following SC injection only.
Cytolytic lymphocyte activity was measured using standard ^51Cr-release assays. Splenocytes were collected and cultured in RPMI supplemented with 10% FBS, 50 U/ml penicillin/streptomycin, 2 mM L-glutamine, 1 mM sodium pyruvate, 2 mM nonessential amino acids, 40 U/ml IL2, and 200 ng/ml MHC class I restricted E7 peptide for 4 days. Effector cells were plated into 96-well plates at various effector-to-target (E:T) cell ratios. Targets used were either EL4 cells pulsed with E7 peptide or non-pulsed EL4 cells. Targets were labeled with 200 μCi ^51Cr (NEN Life Sciences, Boston Mass.) for 18 h at 37° C. Before mixing with effectors, the targets were washed two times with medium, and resuspended at 2×10^5 cells/ml. […] Specific lysis was calculated using the following equation: % specific lysis=(experimental release−spontaneous release)/(maximum release−spontaneous release)×100. […]

For assay [3], the system named is TC-1 cells. Description: Metastatic tumor model (i.p. TC-1 cells) after vaccination, survival and TC-1 rechallenge. Format: in vivo, mice. The following applies: 10 μg E7 peptide in PBS days 0 and 5; 1×10^6 TC-1 cells day 10.
Assay [4] has as its system tumor. In words: In vivo tumor therapy with LPD/E7 and formulations of LPD components. The arrangement: species or system mice. As to conditions: 20 days after treatment; tumor injected 6 days before onset of treatment. The text has this: FIG. 9. Tumor growth kinetics on mice treated with LPD/E7 and other different formulations.
It is speculated that by condensing DNA, protamine helped to bring DNA inside the liposomes. E7 peptide was thought to bind to DNA via electrostatic interaction (Dileo et al., 2003). […] On the other hand, E7might only be loosely bound in the LD/E7 particles.

`CCCCCCCCCCCCCCCCCC(=O)OCC(C[N+](C)(C)C)OC(=O)CCCCCCCCCCCCCCCCC` (stereo not drawn) [DSTAP-18:0, 1,2-distearoyl-3-trimethylammonium propane]: in assay [1], the “Stimulation of CD 80 expression” value is “much lower expression of CD80”. As for “E7 peptide: MHC class I restricted peptide from the HPV 16 E7 protein (aa 49 to 57, RAHYNIVTF), given in PBS”, the “CTL activity” value in assay [2] is reported as “no CTL induction”. Further, the “mice surviving beyond 20 days after TC-1 cell injection” value in assay [3] is listed as 20%. Besides, in assay [4], the “Tumor growth after treatment” value is listed as “kept growing rapidly”. For `CCCCCCCCCCCC(=O)OC[C@H](COP(=O)(OCC)OCC[N+](C)(C)C)OC(=O)CCCCCCCCCCC` (stereo partly drawn) [DLEPC-12:0, 1,2-dilauroyl-sn-glycero-3-ethylphosphocholine], the “Stimulation of CD 80 expression” value in assay [1] is “more potent”. With `CCCCCCCC/C=C\CCCCCCCC(=O)OC[C@@H](COP(=O)(OCC)OCC[N+](C)(C)C)OC(=O)CCCCCCC/C=C\CCCCCCCC` (stereo partly drawn) [DOEPC-18:1, 1,2-dioleoyl-sn-glycero-3-ethylphosphocholine], in assay [1], the “Stimulation of CD 80 expression” value is “more potent”. In the case of `CCCCCCCCCCCCOS(=O)(=O)[O-].[Na+]` [SDS, sodium dodecyl sulfate], the “Stimulation of CD 80 expression” value in assay [1] is “could not activate”. `CCCCCCCCCCCCCCCC(=O)OCC(C[N+](C)(C)C)OC(=O)CCCCCCCCCCCCCCC` (stereo not drawn) [DPTAP-16:0, 1,2-palmitoyl-3-trimethylammonium propane]: the “Stimulation of CD 80 expression” value in assay [1] is recorded as “much lower expression of CD80”. In the case of `CCCCCCCCCCCCCC(=O)OCC(COP(=O)(OCC)OCC[N+](C)(C)C)OC(=O)CCCCCCCCCCCCC` (stereo not drawn) [DMEPC-14:0, 1,2-dimyristoyl-sn-glycero-3-ethylphosphocholine], in assay [1], the “Stimulation of CD 80 expression” value was “more potent”.
